Data taken from US20120329721A1, “MEANS FOR PREVENTING AND TREATING CELLULAR DEATH AND THEIR BIOLOGICAL APPLICATIONS” (CHIESI FARMACEUTICI S.P.A., priority 2003, published 2012).
Read-outs that look alike come from different tables or passages of the source. Starred links: 1 amine or outer side, 2 acyl side, 3 side chain; linkers in the order of their positions; H or OH if unused. Positions of bridges follow the written chain, without caps; N, C: chain ends. Non-standard residues stand in square brackets, D forms with d. Residues, ends and D or L forms follow the SMILES beside them. Chains are numbered I, II in the order given. *: point of attachment. Actinocin(9to1) = Cc1c2oc3c(C)ccc(C(=O)[*:1])c3nc-2c(C(=O)[*:2])c(N)c1=O; X1 = COC(=O)C[C@H](N*)C(=O)COc1c(F)cccc1F; Sta = CC(C)C[C@H](N)[C@@H](O)CC(=O)O; Quinaldoyl = O=C(c1ccc2ccccc2n1)*; NMeV = CN[C@H](C(=O)O)C(C)C; Isovaleryl = CC(C)CC(=O)*; Cbz = O=C(OCc1ccccc1)*; Sar = CNCC(=O)O; CH2F = FC*

Key:
[1] = system: primary cortical neurons; format: cell-based
[2] = molecular target: T1, human recombinant caspase-2 (Homo sapiens, UniProt P42575); test: In vitro VDVAD-AMC cleavage by recombinant caspase-2; format: biochemical; conditions: inhibitor 2 μM, 50 μM VDVAD-AMC, caspase-2 125 U, 30 min at 37° C.
T1 construct: purchased BIOMOL
T1 sequence (P42575 170-325 limits assumed): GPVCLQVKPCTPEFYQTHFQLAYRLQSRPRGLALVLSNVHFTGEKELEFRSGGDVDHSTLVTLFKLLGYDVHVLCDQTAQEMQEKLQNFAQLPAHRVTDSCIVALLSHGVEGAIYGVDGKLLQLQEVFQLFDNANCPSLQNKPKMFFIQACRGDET
T1 sequence (P42575 348-452 limits assumed): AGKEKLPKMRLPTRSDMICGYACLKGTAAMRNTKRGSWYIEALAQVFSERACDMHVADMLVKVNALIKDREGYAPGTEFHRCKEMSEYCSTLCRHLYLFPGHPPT
Description: Activity of human recombinant caspase-2 (BIOMOL QuantiZyme™ Assay System) was assessed in 100 μl assay buffer (50 mM HEPES, pH 7.4, 100 mM NaCl, 0.1% CHAPS, 10 mM DTT, 1 mM EDTA, 10% glycerol).

[3] = system: Jurkat cells; test: VP16-induced cell death of Jurkat cells, cytoprotection assay; format: cell-based, human; conditions: VP16 10 μM, 7-8 hrs; inhibitors 50 μM
[4] = system: caspase-9; test: In cellula caspase-9 like activity (FAM-LEHD-FMK FLICA) in SD-neurons; format: cell-based, mouse; conditions: 24 hr-SD; inhibitors 100 μM (BA 25 μM)
Description: Neurons were incubated with 1/150 of the DMSO stock solution of the FLICA for 1 hr at 37° C. 7-AAD and Hoechst were added during the last 15 min. Then neurons were washed three times in washing buffer (CaspaTag™ Kit). […] Cleaved caspase-3 was evidenced in cellula by immunodetection using Phycoerythrin (PE)-conjugated polyclonal antibodies (Beckton Dickinson). Neurons were stained by 7-AAD, trypsinized and fixed in PBS containing 1% PFA and 20 μg/ml Actinomycin D (AD) for 20 min. […] After washings in PBS, PE-related fluorescence was analysed on the cytometer (Fl-2 channel). Z-val-Ala-Asp(OMe)-FMK (Z-VAD-FMK), Quinoline-Val-Asp (OMe)-CH2-O-Ph (Q-VD-OPH), Z-DEVD-FMK ([…], ICN) and Z-LEHD-FMK ([…], all purchased from ICN (Orsay, France), and 4-(2-Aminoethyl)benzenesulfonyl fluoride (AEBSF, Pefabloc SC, Roche, Meylan, France) were added at 100 μM at the initiation of serum deprivation. Sulforhodamine-DEVD-FMK, (CaspaTag™ Red Activity Kit) permitted to detect activated caspase-3 and FITC-Annexin V. Neurons were incubated with 1/900 of the DMSO stock solution of the FLICA, and 1× FITC-annexin V in 200 μl of annexin-buffer for 30 min at 37° C. Then neurons were washed three times in a buffer composed of 50% washing buffer and 50% annexin-buffer. […] For FM, FLICA was excited through the BP515-560 filter and its fluorescence was collected through the LP590 long pass emission filter.
Neurons were loaded with 1 μM JC-1 for 30 min at 37° C. […] JC-1 monomers were detected in the Fl-1 channel by FC. […] Activated caspase-2, -3, -8 and -9 were detected using specific FAM-conjugated peptides (called Fluorochrome Labeled Inhibitor of Caspase, FLICA: CaspaTag™ fluorescein Caspase Activity Kits, Q-Biogen, Illkirch, France; ApoFluor™ Caspase Detection Kits, ICN, Orsay, France): FAM-VDVAD-FMK, FAM-DEVD-FMK, FAM-LETD-FMK and FAM-LEHD-FMK, respectively. Neurons were incubated with FLICAs (1:150, CaspaTag™ or 1:500, ApoFluor™) for 1 hr at 37° C., then washed three times in washing buffer. […] Phosphatidylserine (PS) exposure to the outer leaflet of the plasma membrane was detected through the fixation of FITC conjugated-annexin V (Immunotech).

[5] = system: caspase-3; test: In cellula caspase-3 like activity (FAM-DEVD-FMK FLICA or anti-cleaved caspase-3 antibody) in SD-neurons; format: cell-based, mouse; conditions: 24 hr-SD; inhibitors 100 μM (BA 25 μM)
[6] = system: primary cortical neurons; test: Real-time FC and fixed-time FM detection of ΔΨm and PMP in neurons treated with neurotoxic molecules; format: cell-based, mouse; conditions: for ΔΨm and PMP state of non-trypsinized neurons (FM): FM co-detection JC-1/7-AAD, 45 minutes (mClCCP 100 μM, 30 min)
[7] = system: neonatal ischemic brain injury in 7 day-old rats
[8] = SD model, compound added at the start of SD at the concentration of column '[ ], μM' (first concentration/target where two are printed)

Cn1cnc(N)c2ncnc1-2 [3-Methyladenine]
Survival [1, 8]: No

CC(=O)N[C@H](C(=O)N[C@@H](CC(=O)O)C(=O)N[C@H](C(=O)N[C@@H](C)C(=O)N[C@H](C=O)CC(=O)O)C(C)C)C(C)C [Ac-VDVAD-Cho] (Ac-VDVAD-aldehyde)
inhibition of VDVAD-AMC cleavage by recombinant caspase-2 [2]: blocked

Cc1c2oc3c(C)ccc(C(=O)N[C@@H]4C(=O)N[C@H](C(C)C)C(=O)N5CCC[C@H]5C(=O)N(C)CC(=O)N(C)[C@@H](C(C)C)C(=O)O[C@@H]4C)c3nc-2c(C(=O)N[C@@H]2C(=O)N[C@H](C(C)C)C(=O)N3CCC[C@H]3C(=O)N(C)CC(=O)N(C)[C@@H](C(C)C)C(=O)O[C@@H]2C)c(N)c1=O [Actinomycin D] (I: T[dV]P[Sar][NMeV] / II: T[dV]P[Sar][NMeV]; ester I:1-I:C, II:1-II:C; linker I:N-II:N via Actinocin(9to1))
survival / protection of SD-neurons against cell death (apoptosis hallmarks overall) [1]: promote survival
Survival [1, 8]: Yes
terminal nuclear alterations and PMP in VP16-treated Jurkat cells [3]: prevent neither ΔΨm loss nor PMP
ΔΨm loss in VP16-treated Jurkat cells [3]: prevent neither ΔΨm loss nor PMP

CC(C)[C@H](CO)Nc1nc(Nc2cc(N)cc(Cl)c2)c2ncn(C(C)C)c2n1 [Aminopurvalanol]
Survival [1, 8]: No

CC(=O)Oc1ccccc1C(=O)O [Aspirin]
Survival [1, 8]: No

CO[C@H](C/C=C\C=C\CC/C=C/C[C@H](C)/C=C/C(=C\C(=O)O)CC(=O)O)/C(C)=C\C=C(/C)C(=O)O [BA, bongkrekic acid]
caspase-9 like activity / activation in SD-neurons [4]: prevents caspase-9 like activation
survival / protection of SD-neurons against cell death (apoptosis hallmarks overall) [1]: Neuroprotection
ΔΨm loss (drop) in SD-neurons ([1]; 24 hr-SD, JC-1, inhibitors 100 μM (BA 25 μM)): inhibited
degradation phase of apoptosis: PS exposure, nuclear apoptosis (NA), PMP in SD-neurons ([1]; 24 hr-SD, inhibitors 100 μM (BA 25 μM)): strongly prevent
terminal nuclear alterations and PMP in VP16-treated Jurkat cells [3]: attenuates
ΔΨm loss in VP16-treated Jurkat cells [3]: attenuates
caspase-3 like activity / activation in SD-neurons [5]: strongly prevent

CC(=O)OCOC(=O)CN(CC(=O)OCOC(C)=O)c1ccccc1OCCOc1ccccc1N(CC(=O)OCOC(C)=O)CC(=O)OCOC(C)=O [BAPTA-AM, acetoxymethyl ester of 1,2-bis(2-aminophenoxy)ethane-N,N,N′,N′-tetraacetic acid]
Survival [1]: No

CO/C1=C\C(C)=C\[C@@H](C)[C@@H](O)[C@@H](C)C/C(C)=C/C=C/[C@H](OC)[C@@H]([C@@H](C)[C@@H](O)[C@H](C)[C@@]2(O)C[C@@H](O)[C@H](C)[C@@H](C(C)C)O2)OC1=O [Bafilomycin A1]
Survival [1, 8]: No

C[C@@H]1C[C@@H]([C@H](O)CC2CC(=O)NC(=O)C2)C(=O)[C@@H](C)C1 [Cycloheximide]
survival / protection of SD-neurons against cell death (apoptosis hallmarks overall) [1]: promote survival
Survival [1, 8]: Yes
terminal nuclear alterations and PMP in VP16-treated Jurkat cells [3]: prevent neither ΔΨm loss nor PMP
ΔΨm loss in VP16-treated Jurkat cells [3]: prevent neither ΔΨm loss nor PMP

O=S(=O)([O-])c1cc(N=C=S)ccc1C=Cc1ccc(N=C=S)cc1S(=O)(=O)[O-].[Na+].[Na+] [DIDS, 4,4′-Diisothiocyanastilbene-2,2′-disulfonic acid disodium salt]
Survival [1, 8]: No

CCCCCCCCCCC1=C(C)C(=O)C(OC)=C(OC)C1=O [Decyl-Ubiquinone]
Survival [1, 8]: No

O=c1c(-c2ccc(O)cc2)coc2cc(O)cc(O)c12 [Genistein]
Survival [1]: No

CC1CNCCN1S(=O)(=O)c1cccc2cnccc12 (stereo not shown) [H-7]
Survival [1, 8]: No

CCC(=C/[C@H](C)C/C=C/C(C)=C/[C@@H](C)C(=O)[C@@H](C)[C@H](O)[C@@H](C)C/C(C)=C/C(=O)O)/C=C/[C@@H]1OC(=O)C=C[C@@H]1C [Leptomycin B]
Survival [1, 8]: No

CN1CC=C(c2ccccc2)CC1 [MPTP, 1-methyl-4-phenyl-1,2,3,6-tetrahydropyridine]
ΔΨm and PMP state of non-trypsinized neurons (FM) [6]: most neurons are ΔΨm low without any sign of PMP
ΔΨm low neurons ([6]; real-time FC, after 15 minutes of treatment): 49.6%

CC(=O)N[C@@H](CS)C(=O)O [N-Acetyl-Cystein]
Survival [1, 8]: No

C=C1[C@@H](O)[C@@H]2O[C@]3(CC[C@H](/C=C/[C@@H](C)[C@@H]4CC(C)=C[C@@]5(O[C@H](C[C@@](C)(O)C(=O)O)CC[C@H]5O)O4)O3)CC[C@H]2O[C@@H]1[C@@H](O)C[C@H](C)[C@H]1O[C@@]2(CCCCO2)CC[C@H]1C [Okadaic acid]
Survival [1, 8]: No

COc1cccc(-c2cc(=O)c3ccccc3o2)c1N [PD 98059]
Survival [1, 8]: No

CC(C)CC(=O)N[C@H](C(=O)N[C@H](C(=O)N[C@@H](CC(C)C)[C@@H](O)CC(=O)N[C@@H](C)C(=O)N[C@@H](CC(C)C)[C@@H](O)CC(=O)O)C(C)C)C(C)C [Pepstatin] (Isovaleryl-VV[Sta]A[Sta]-OH)
Survival [1, 8]: No

COC(=O)C[C@H](NC(=O)[C@H](C)NC(=O)[C@@H](NC(=O)[C@H](CC(=O)OC)NC(=O)[C@@H](NC(=O)c1ccc2ccccc2n1)C(C)C)C(C)C)C(=O)COc1c(F)cccc1F [Q-VDVAD-OPH, Quinolinylcarnonyl-L-Valinyl-L-Aspartyl (methyl ester)-X-Vanilyl-L-Alaninyl-L-Aspartyl (methyl ester) 2,6-difluorophenyl ester] (Quinaldoyl-VD(OMe)VA-X1)
inhibition of VDVAD-AMC cleavage by recombinant caspase-2 [2]: blocked
survival / protection of SD-neurons against cell death (apoptosis hallmarks overall) [1]: promotes survival of cortical neurons
infarct volume (% damage in the lesioned ipsilateral hemisphere) ([7]; single i.p. dose before ischemia, 48 hours, mean ±SEM): 5.7±2.3%
reduction in infarct volume ([7]; single i.p. dose before the ischemic onset, 48 hours after ischemia, vs ischemic control): 74%
animals (of the 12 studied) with a very marked smaller infarct ([7]; single i.p. dose, 48 hours): 8
mean infarct of the four other animals ([7]; single i.p. dose, 48 hours): 16.5±1.32%
median infarct of the 8 animals with a very marked smaller infarct ([7]; single i.p. dose, 48 hours): 0.5%
animals that exhibited no infarct ([7]; single i.p. dose, 48 hrs after ischemia): 8

CC[C@H](CO)Nc1nc(NCc2ccccc2)c2ncn(C(C)C)c2n1 [Roscovitine]
Survival [1]: No

Oc1ccc(-c2nc(-c3ccncc3)c(-c3ccc(F)cc3)[nH]2)cc1 [SB 202190]
Survival [1, 8]: No

Cc1c(C)c2c(c(C)c1O)CCC(C)(C(=O)O)O2 (stereo not shown) [Trolox ®]
Survival [1, 8]: No

CCO [ethanol]
ΔΨm and PMP state of non-trypsinized neurons (FM) [6]: induces a rapid PMP
PMP ([6]; real-time FC, after 5 minutes): 98%
ΔΨm loss ([6]; real-time FC, after 5 minutes): 75%

N[C@@H](CCC(=O)N[C@@H](CS)C(=O)NCC(=O)O)C(=O)O [glutathion]
Survival [1, 8]: No

N#CC(C#N)=NNc1cccc(Cl)c1 [mClCCP, carbonyl cyanide m-chlorophenylhydrazone]
ΔΨm and PMP state of non-trypsinized neurons (FM) [6]: induces ΔΨm disruption
time of treatment at which ΔΨm loss of neuronal population is maximal ([6]; real-time FC, 100 μM): 2 min

O=C(NC(Cc1ccccc1)C(=O)NC(Cc1ccccc1)C(=O)CF)OCc1ccccc1 (stereo not drawn) [z-FF-fmk, N-benzyloxycarbonyl-Phe-Phe-fluoromethylketone] (Cbz-Phe-Phe-CH2F; configuration not given here)
Survival [1, 8]: No

N-benzyloxycarbonyl-Phe-Ala-fluoromethylketone [z-FA-fmk]
Survival [1, 8]: No

Ruthenium Red
Survival [1, 8]: No
